# According to PubChem BioAssay AID248 (DTP/NCI, 2004):
# Several values for one entry are separate records, joined by “and”; a condition that tells them apart may be missing. Identical values can stand only once. Toxic doses and inconclusive results are not listed.
# Test system: L1210 leukemia ip in BDF1 mice, survival T/C
# Test: NCI In Vivo Anticancer Drug Screen. Data for tumor model L1210 Leukemia (intraperitoneal) in B6D2F1 (BDF1) mice
# Settings: endpoint: mean survival time, higher = longer survival
# Summary of the method: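 Ratio derived from survival: compound-dosed mice over vehicle-dosed mice, all bearing a transplantable tumor.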
# [1] = dose: 100.0 mg/kg/injection, schedule: Q01DX009 (ip), vehicle: Klucel (hydroxypropylcellulose) (HPC)
# [2] = dose: 100.0 mg/kg/injection, schedule: Q04DX003 (ip), vehicle: Klucel (hydroxypropylcellulose) (HPC)
# [3] = dose: 200.0 mg/kg/injection, schedule: Q01DX009 (ip), vehicle: Klucel (hydroxypropylcellulose) (HPC)
# [4] = dose: 200.0 mg/kg/injection, schedule: Q04DX003 (ip), vehicle: Klucel (hydroxypropylcellulose) (HPC)
# [5] = dose: 400.0 mg/kg/injection, schedule: Q01DX009 (ip), vehicle: Klucel (hydroxypropylcellulose) (HPC)
# [6] = dose: 400.0 mg/kg/injection, schedule: Q04DX003 (ip), vehicle: Klucel (hydroxypropylcellulose) (HPC)
compound,measurement,setting,value
CCCCCCCCCCCCC/C=N\NC(=O)CCCC(=O)N/N=C/CCCCCCCCCCCCC,T/C,"dose: 50.0 mg/kg/injection, schedule: Q01DX001 (ip), vehicle: other",93 % of control
same,T/C,"dose: 100.0 mg/kg/injection, schedule: Q01DX001 (ip), vehicle: other",91 % of control
same,T/C,"dose: 200.0 mg/kg/injection, schedule: Q01DX001 (ip), vehicle: other",93 % of control
same,T/C,"dose: 400.0 mg/kg/injection, schedule: Q01DX001 (ip), vehicle: other",98 % of control
CC1(C)CCC(=NO)CC1,T/C,"dose: 75.0 mg/kg/injection, schedule: Q01DX001 (ip), vehicle: other",103 % of control
same,T/C,"dose: 150.0 mg/kg/injection, schedule: Q01DX001 (ip), vehicle: other",97 % of control
c1ccc(OCCC[P+](c2ccccc2)(c2ccccc2)c2ccccc2)cc1,T/C,"dose: 50.0 mg/kg/injection, schedule: Q01DX001 (ip), vehicle: saline",100 % of control
Cc1cccc(NC(=O)Nc2ccccc2Cl)c1C,T/C,[1],94 % of control
same,T/C,[2],95 % of control
same,T/C,[3],92 % of control
same,T/C,[4],110 % of control
same,T/C,[5],96 % of control
same,T/C,[6],96 % of control
CC(=O)OCC1CCC(NC(=O)N(CCCl)N=O)CC1 (configuration not stated),T/C,"dose: 3.0 mg/kg/injection, schedule: Q01DX001 (ip), vehicle: Klucel (hydroxypropylcellulose) (HPC)",104 % of control
same,T/C,"dose: 5.0 mg/kg/injection, schedule: Q01DX001 (ip), vehicle: Klucel (hydroxypropylcellulose) (HPC)",114 % of control
same,T/C,"dose: 8.0 mg/kg/injection, schedule: Q01DX001 (ip), vehicle: Klucel (hydroxypropylcellulose) (HPC)",167 % of control
same,T/C,"dose: 12.0 mg/kg/injection, schedule: Q01DX001 (ip), vehicle: Klucel (hydroxypropylcellulose) (HPC)",221 % of control
same,T/C,"dose: 18.0 mg/kg/injection, schedule: Q01DX001 (ip), vehicle: Klucel (hydroxypropylcellulose) (HPC)",270 % of control and 316 % of control
same,T/C,"dose: 26.0 mg/kg/injection, schedule: Q01DX001 (ip), vehicle: Klucel (hydroxypropylcellulose) (HPC)",316 % of control
same,T/C,"dose: 40.0 mg/kg/injection, schedule: Q01DX001 (ip), vehicle: Klucel (hydroxypropylcellulose) (HPC)",208 % of control
COC(=O)CCN1CCC1,T/C,"dose: 100.0 mg/kg/injection, schedule: Q04DX002 (ip), vehicle: saline",97 % of control
same,T/C,"dose: 200.0 mg/kg/injection, schedule: Q04DX002 (ip), vehicle: saline",101 % of control
same,T/C,"dose: 400.0 mg/kg/injection, schedule: Q04DX002 (ip), vehicle: saline",97 % of control
COC1OC(CI)C(OC(C)=O)C(OC(C)=O)C1OS(C)(=O)=O (configuration not stated),T/C,"dose: 100.0 mg/kg/injection, schedule: Q04DX002 (ip), vehicle: Klucel (hydroxypropylcellulose) (HPC)",97 % of control
same,T/C,"dose: 200.0 mg/kg/injection, schedule: Q04DX002 (ip), vehicle: Klucel (hydroxypropylcellulose) (HPC)",106 % of control
same,T/C,"dose: 400.0 mg/kg/injection, schedule: Q04DX002 (ip), vehicle: Klucel (hydroxypropylcellulose) (HPC)",91 % of control
C=C(C)COC(N)=O,T/C,"dose: 100.0 mg/kg/injection, schedule: Q01DX009 (ip), vehicle: saline with Tween-80",95 % of control
same,T/C,"dose: 100.0 mg/kg/injection, schedule: Q04DX003 (ip), vehicle: saline with Tween-80",102 % of control
same,T/C,"dose: 200.0 mg/kg/injection, schedule: Q01DX009 (ip), vehicle: saline with Tween-80",96 % of control
same,T/C,"dose: 200.0 mg/kg/injection, schedule: Q04DX003 (ip), vehicle: saline with Tween-80",102 % of control
same,T/C,"dose: 400.0 mg/kg/injection, schedule: Q01DX009 (ip), vehicle: saline with Tween-80",91 % of control
same,T/C,"dose: 400.0 mg/kg/injection, schedule: Q04DX003 (ip), vehicle: saline with Tween-80",103 % of control
CN(Nc1c([N+](=O)[O-])cc([N+](=O)[O-])cc1[N+](=O)[O-])c1ccc2ccccc2c1,T/C,"dose: 50.0 mg/kg/injection, schedule: Q01DX009 (ip), vehicle: Klucel (hydroxypropylcellulose) (HPC)",103 % of control
same,T/C,[1],95 % of control
same,T/C,[2],95 % of control
same,T/C,[3],95 % of control
same,T/C,[4],92 % of control
same,T/C,[5],98 % of control
same,T/C,[6],95 % of control
CCCCN=Cc1ccc(Cl)cc1,T/C,"dose: 100.0 mg/kg/injection, schedule: Q04DX002 (ip), vehicle: saline with Tween-80",90 % of control
same,T/C,"dose: 200.0 mg/kg/injection, schedule: Q04DX002 (ip), vehicle: saline with Tween-80",87 % of control
same,T/C,"dose: 400.0 mg/kg/injection, schedule: Q04DX002 (ip), vehicle: saline with Tween-80",100 % of control
